Measured values: PubChem BioAssay (NCI)
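How tested: cells in 96-well plates exposed to compound for 48 hours at five concentrations. GI50 marks 50% less growth. TGI marks complete inhibition of growth.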

Experiments:
Assay in all cases: DTP human tumour cell line panel, 48 h
[1] = test system: UACC-257 melanoma
[2] = test system: OVCAR-5 ovarian
[3] = test system: IGROV1 ovarian
[4] = test system: CAKI-1 renal
[5] = test system: TK-10 renal
[6] = test system: COLO 205 colon
[7] = test system: MALME-3M melanoma
[8] = test system: HOP-62 NSCLC
[9] = test system: SN12C renal
[10] = test system: HOP-92 NSCLC

CNC(=O)c1ccc(N2C(=S)N(c3cnc(C#N)c(C(F)(F)F)c3)C(=O)C23CCC3)cc1F
GI50 [1]: > 95 µM | TGI [1]: > 100 µM | GI50 [2]: > 100 µM | TGI [2]: > 100 µM | GI50 [3]: > 100 µM | TGI [3]: > 100 µM | GI50 [4]: > 100 µM | TGI [4]: > 100 µM | GI50 [5]: > 100 µM | TGI [5]: > 100 µM | GI50 [6]: > 100 µM | TGI [6]: > 100 µM | GI50 [7]: 98.3 µM | TGI [7]: > 100 µM | GI50 [8]: > 100 µM | TGI [8]: > 100 µM | GI50 [9]: > 100 µM | TGI [9]: > 100 µM | GI50 [10]: > 86.7 µM | TGI [10]: > 100 µM

Cc1c(-c2cnccn2)ssc1=S
TGI [1]: 38.1 µM | TGI [2]: > 100 µM | TGI [3]: > 100 µM | TGI [4]: > 100 µM | TGI [5]: 98.7 µM | TGI [6]: > 100 µM | TGI [7]: > 100 µM | TGI [8]: 92 µM | TGI [9]: > 100 µM | TGI [10]: 89.7 µM

CCC[C@H]1O[C@@H]2CC(=O)O[C@@H]2C2=C1C(=O)C=CC2=O
TGI [1]: 34.8 µM | TGI [2]: 36 µM | TGI [3]: 32.1 µM | TGI [4]: 34.1 µM | TGI [5]: > 57.3 µM | TGI [6]: 9.03 µM | TGI [7]: 32.3 µM | TGI [8]: > 95 µM | TGI [9]: 32.6 µM | TGI [10]: 8.31 µM

COc1ccc(Nc2nc3cc(N)cc(N)c3nc2-c2ccccc2)cc1
TGI [1]: 27.5 µM | GI50 [2]: 21.5 µM | TGI [2]: 53.4 µM | GI50 [3]: 15.4 µM | TGI [3]: 35.8 µM | GI50 [4]: 35.2 µM | TGI [4]: > 100 µM | GI50 [5]: 16.5 µM | TGI [5]: 42.5 µM | GI50 [6]: 15.7 µM | TGI [6]: 29.2 µM | GI50 [7]: 15 µM | TGI [7]: 28.3 µM | GI50 [8]: 27.6 µM | TGI [8]: > 100 µM | GI50 [9]: 20.6 µM | TGI [9]: 57.4 µM | GI50 [10]: 19.9 µM | TGI [10]: 52.6 µM

Cc1c(C)c2ccc3oc4ccccc4c3c2oc1=O
TGI [1]: > 100 µM | TGI [2]: > 100 µM | TGI [3]: > 100 µM | TGI [4]: > 100 µM | TGI [5]: > 100 µM | TGI [6]: > 100 µM | TGI [7]: > 100 µM | TGI [8]: > 100 µM | TGI [9]: > 100 µM | TGI [10]: > 100 µM

Oc1c(Cl)cc(Cl)c(Cl)c1CNCCNCc1c(O)c(Cl)cc(Cl)c1Cl
GI50 [1]: 1.76 µM | TGI [1]: 9.88 µM | GI50 [2]: 2.49 µM | TGI [2]: 29 µM | GI50 [3]: 0.951 µM | TGI [3]: 7.8 µM | GI50 [4]: 1.09 µM | TGI [4]: 9.23 µM | GI50 [5]: 2.02 µM | TGI [5]: 11.2 µM | GI50 [6]: 1.09 µM | TGI [6]: > 50 µM | GI50 [7]: 1.11 µM | TGI [7]: 9.67 µM | GI50 [8]: 0.894 µM | TGI [8]: 8.3 µM | GI50 [9]: 2.02 µM | TGI [9]: 17.9 µM | GI50 [10]: 1.66 µM | TGI [10]: 10.3 µM

COc1cc2c(cc1OC(C)C)[C@H](c1ccc(Cl)cc1)N(c1ccc(N(C)CC3CCC(N4CCN(C)C(=O)C4)CC3)cc1)C(=O)C2 (some centres undefined)
GI50 [1]: 1.4 µM | TGI [1]: 6.92 µM | GI50 [2]: 2.66 µM | TGI [2]: 9.58 µM | GI50 [3]: 1.16 µM | TGI [3]: 4.13 µM | GI50 [4]: 0.345 µM | TGI [4]: 4.99 µM | GI50 [5]: 3.63 µM | TGI [5]: 9.34 µM | GI50 [6]: 2.59 µM | TGI [6]: 7.36 µM | GI50 [7]: 0.09 µM | TGI [7]: 2.74 µM | GI50 [8]: 4.19 µM | TGI [8]: 9.64 µM | GI50 [9]: 2.95 µM | TGI [9]: 9.15 µM | GI50 [10]: 1.98 µM | TGI [10]: 4.85 µM

COc1cc(/C=C/c2cc(/C=C/c3ccc(O)c(OC)c3)n(C(=O)c3ccc(Cl)cc3)n2)ccc1O
GI50 [1]: 3.79 µM | TGI [1]: 13.2 µM | GI50 [2]: 3.66 µM | TGI [2]: 18.2 µM | GI50 [3]: 3.17 µM | TGI [3]: 15.4 µM | GI50 [4]: 2.97 µM | TGI [4]: 15 µM | GI50 [5]: 4.2 µM | TGI [5]: 14.7 µM | GI50 [6]: 3.78 µM | TGI [6]: 13.4 µM | GI50 [7]: 1.31 µM | TGI [7]: 10.1 µM | GI50 [8]: 2.08 µM | TGI [8]: 6.92 µM | GI50 [9]: 2.35 µM | TGI [9]: 13 µM | GI50 [10]: 3.97 µM | TGI [10]: 22.2 µM

O=C(O)CCNCC(=O)O
TGI [1]: > 100 µM | TGI [2]: > 100 µM | TGI [3]: > 100 µM | TGI [4]: > 100 µM | TGI [5]: > 100 µM | TGI [6]: > 100 µM | TGI [7]: > 100 µM | TGI [8]: > 100 µM | TGI [9]: > 100 µM | TGI [10]: > 100 µM

C/C(=N\N=C(N)N)C(CN1CCCCC1)C(c1ccccc1)c1c(O)c2ccccc2oc1=O (centres undefined)
TGI [1]: > 100 µM | TGI [2]: > 100 µM | TGI [3]: > 100 µM | TGI [4]: > 100 µM | TGI [5]: > 100 µM | TGI [6]: > 100 µM | TGI [7]: > 100 µM | TGI [8]: > 100 µM | TGI [9]: > 100 µM | TGI [10]: > 100 µM

CN(Cc1ccccc1)Cn1ccnc1
TGI [1]: 47.4 µM | TGI [2]: > 100 µM | TGI [3]: > 100 µM | TGI [4]: > 100 µM | TGI [5]: > 100 µM | TGI [6]: > 86.7 µM | TGI [7]: 50.4 µM | TGI [8]: > 100 µM | TGI [9]: > 100 µM | TGI [10]: > 100 µM

O=C1C=C(Nc2ccc(Cl)cc2Cl)c2ccccc2C1=O
TGI [1]: > 100 µM | TGI [2]: > 100 µM | TGI [3]: > 100 µM | TGI [4]: > 100 µM | TGI [5]: > 100 µM | TGI [6]: > 100 µM | TGI [7]: 71 µM | TGI [8]: > 100 µM | TGI [9]: > 100 µM | TGI [10]: 56.5 µM

O=C1N[C@@H]2[C@@H](O)[C@@H](O)[C@H](O)C[C@H]2c2cc3c(c(O)c21)OCCO3
GI50 [1]: 0.34 µM | TGI [1]: 1.97 µM | GI50 [2]: 0.412 µM | TGI [2]: 3.28 µM | GI50 [3]: 0.389 µM | TGI [3]: 3.13 µM | GI50 [4]: 0.989 µM | TGI [4]: 6.14 µM | GI50 [5]: 0.684 µM | TGI [5]: 5.09 µM | GI50 [6]: 0.162 µM | TGI [6]: 0.405 µM | GI50 [7]: 0.209 µM | TGI [7]: 0.731 µM | GI50 [8]: 0.282 µM | TGI [8]: 1.32 µM | GI50 [9]: 0.162 µM | TGI [9]: 0.978 µM | GI50 [10]: 0.116 µM | TGI [10]: 0.892 µM

NS(=O)(=O)OC[C@H]1C[C@@H](Nc2ccnc3cc(-c4cccc(SC(F)(F)F)c4)nn23)[C@H](O)[C@@H]1O
GI50 [1]: 0.0278 µM | TGI [1]: 0.108 µM | GI50 [2]: 0.0578 µM | TGI [2]: 2.83 µM | GI50 [3]: 0.111 µM | TGI [3]: 0.673 µM | GI50 [4]: 0.181 µM | TGI [4]: 0.477 µM | GI50 [5]: 0.126 µM | TGI [5]: 0.336 µM | GI50 [6]: 0.0229 µM | TGI [6]: 0.0525 µM | GI50 [7]: 0.0275 µM | TGI [7]: 0.0652 µM | GI50 [8]: 0.0173 µM | TGI [8]: 0.0489 µM | GI50 [9]: 0.0462 µM | TGI [9]: 0.319 µM | GI50 [10]: 0.0308 µM | TGI [10]: 0.0788 µM

O=C(CN(/C=C/C(=O)C(F)(F)F)c1ccc(Cl)cc1)c1ccc(Cl)cc1
GI50 [1]: 7.45 µM | TGI [1]: 20.8 µM | GI50 [2]: 16.1 µM | TGI [2]: 32.9 µM | GI50 [3]: 1.79 µM | TGI [3]: 7.96 µM | GI50 [4]: 1.98 µM | TGI [4]: 9.5 µM | GI50 [5]: 4.78 µM | TGI [5]: 19.3 µM | GI50 [6]: 13.4 µM | TGI [6]: 31.8 µM | GI50 [7]: 15.5 µM | TGI [7]: 50.8 µM | GI50 [8]: 32.8 µM | TGI [8]: > 100 µM | GI50 [9]: 11.9 µM | TGI [9]: 24.2 µM | GI50 [10]: 19.2 µM | TGI [10]: 35.8 µM
